Assay results: patent publication US5441987A, “Antifungal agent” (Merck & Co., Inc., priority 1994, dated 1995)
≈ marks a conversion by molar mass, not a printed value.

How the values were obtained:
[1] = system: Aspergillus fumigatus (MF 4839); assay: broth microdilution MIC assay; conditions: read-out: Minimum Inhibitory Concentration (MIC)
Description: (§1) In the microbroth dilution assay, microorganisms were selected by streaking a yeast culture on Sabouraud dextrose agar (SDA) incubating for 24-48 hours at 35°-37° C., thereafter selected 3 to 5 characteristic colonies and transferring to a fresh plate and incubating under similar conditions. From the regrowth, 3 to 5 colonies were selected and suspended in 10 milliliters of YM broth (Difco) and incubated for 4 hours at 35°-37° C. shaking at 225 rpm. The 4 hour broth cultures were adjusted optically to 86% transmission resulting in a concentration of 1-5 X 10^6 cfu/ml which was further diluted 1:100 in YNBD (yeast nitrogen base with 1% dextrose) to obtain a concentration of 1-5 X 10^4 cfu/ml for use as inocula.
(§2) The compounds in column 1 were then serially diluted two-fold to yield concentrations from 128 μg/ml to 0.6 μg/ml.
(§3) The plates containing the diluted compounds were then inoculated with 75 μl/well of the appropriate microorganism and incubated for 48 hours at 35°-37° C. with MIC (minimum inhibitory concentration) determinations carried out after 24 hours of incubation. Growth and sterility controls for each organism and sterility checks for the compounds also were carried out.

[2] = system: Candids albicans (MY 1028); assay: broth microdilution MIC/MFC assay; conditions: Candida albicans; for MFC: read-out: Minimum Fungicidal Concentration (MFC)
Description: as §1, §2, §3
(§4) After recording MICs at 24 hours, the microtiter plates were shaken gently to resuspend the cells. A 1.5 μl sample was transferred from each well of the 96-well microtiter plate to a single reservoir inoculum plate containing SDA. The inoculated SDA and corresponding microtiter plates were incubated for 24 hours at 35°-37° C. For Cryptococus neoformans, SDA plates were inoculated at 48 hours after recording MICs and incubated 48 hours before reading the MFC. MFC is the lowest concentration of compound at which either no growth or growth of ≤4 colonies occur.

[3] = system: C. pseudotropicalis (MY 2099); assay: broth microdilution MIC/MFC assay; conditions: Kluyveromyces marxianus; for MIC: 24 h, read-out: Minimum Inhibitory Concentration (MIC); for MFC: read-out: Minimum Fungicidal Concentration (MFC)
Description: as §1, §2, §3, §4

C. neoformans (MY 1146) = assay: broth microdilution MIC/MFC assay; conditions: Cryptococcus neoformans; for MFC: 48 h, read-out: Minimum Fungicidal Concentration (MFC); for MIC: read-out: Minimum Inhibitory Concentration (MIC)
Description: as §1, §2, §3, §4

C. neoformans (MY 2062) = assay: broth microdilution MIC/MFC assay; conditions: Cryptococcus neoformans; for MFC: 48 h, read-out: Minimum Fungicidal Concentration (MFC); for MIC: read-out: Minimum Inhibitory Concentration (MIC)
Description: as §1, §2, §3, §4

C. albicans (MY 1750) = assay: broth microdilution MIC/MFC assay; conditions: Candida albicans; for MFC: read-out: Minimum Fungicidal Concentration (MFC)
Description: as §1, §2, §3, §4

[4] = system: Saccharomyces cerevisiae (MY 1976); assay: broth microdilution MIC/MFC assay; conditions: for MIC: 24 h, read-out: Minimum Inhibitory Concentration (MIC)
Description: as §1, §2, §3, §4

A. fumigatus (5668) = assay: broth microdilution MIC assay; conditions: Aspergillus fumigatus, read-out: Minimum Inhibitory Concentration (MIC)
Description: as §1, §2, §3

C. neoformans (MY 2061) = assay: broth microdilution MIC/MFC assay; conditions: Cryptococcus neoformans; for MFC: 48 h, read-out: Minimum Fungicidal Concentration (MFC); for MIC: read-out: Minimum Inhibitory Concentration (MIC)
Description: as §1, §2, §3, §4

[5] = system: Cryptococcus neoformans (MY 1051); assay: broth microdilution MIC/MFC assay; conditions: for MFC: 48 h, read-out: Minimum Fungicidal Concentration (MFC); for MIC: read-out: Minimum Inhibitory Concentration (MIC)
Description: as §1, §2, §3, §4

C. tropicalis (MY 1012) = assay: broth microdilution MIC/MFC assay; conditions: Candida tropicalis; for MIC: 24 h, read-out: Minimum Inhibitory Concentration (MIC); for MFC: read-out: Minimum Fungicidal Concentration (MFC)
Description: as §1, §2, §3, §4

[6] = system: C. parapsilosis (MY 1010); assay: broth microdilution MIC/MFC assay; conditions: Lodderomyces parapsilosis; for MIC: 24 h, read-out: Minimum Inhibitory Concentration (MIC); for MFC: read-out: Minimum Fungicidal Concentration (MFC)
Description: as §1, §2, §3, §4

A. fumigatus (5669) = assay: broth microdilution MIC assay; conditions: Aspergillus fumigatus, read-out: Minimum Inhibitory Concentration (MIC)
Description: as §1, §2, §3

[7] = system: C. guillermondii (MY 1019); assay: broth microdilution MIC/MFC assay; conditions: Meyerozyma guilliermondii; for MIC: 24 h, read-out: Minimum Inhibitory Concentration (MIC); for MFC: read-out: Minimum Fungicidal Concentration (MFC)
Description: as §1, §2, §3, §4

filamentous fungi = assay: filter paper disc inhibition zone assay, filamentous fungi; format: cell-based; conditions: 25 μl/disc, 28° C. or 37° C., 24 hours
Description: Compound I is also useful for inhibiting the growth of filamentous fungi. Such use may be illustrated in the following tests with Aspergillus fumigatus, Aspergillus niger, Aspergillus flavus, Fusarium oxysporum, Rhizomicor miehei, Ustilago zeae and the like. Inocula for filamentous fungi are prepared by scraping the surface of stock plates maintained on potato dextrose agar with a moistened sterile dacron swab. The spores and mycelia are then suspended in 10 milliliters of sterile potato dextrose broth and adjusted to 70 percent transmission at 660 nm. The samples to be tested for production of antifungal agent are applied to 6.2 mm. filter paper discs (25 microliter/disc) and air dried at 24° C. When the sample to be tested is crude broth, it may be centrifuged prior to application. The discs bearing the material to be tested are then applied employing sterile conditions to the seeded assay plates and the samples […] 25 percent sterile aqueous dimethylsulfoxide (25 μl/disc). The assay plates are then incubated at either 28° C. or 37° C. for 24 hours. Following incubation, the inhibition zones are measured. Growths are also noted as to appearance.

Plasmopara viticola = assay: in vivo protectant assay, downy mildew on grape; conditions: 50 ppm, evaluated after 12 days
Botrytis cinerea = assay: in vivo protectant assay, grey mold on pepper; conditions: 50 ppm, evaluated after four days
Puccinia recondita = assay: in vivo protectant assay, wheat leaf rust on wheat; conditions: 50 ppm, evaluated after 10-14 days
Alternaria solani = assay: in vivo protectant assay, early blight on tomato; conditions: 50 ppm, evaluated after four days
Phytophthora infestans = format: in vivo; conditions: 50 ppm, tomato, evaluated after four days
[8] = 24 h, read-out: Minimum Inhibitory Concentration (MIC)

Row | SMILES | MIC [1] | MFC [2] | MIC [3] | MFC [3] | MFC (C. neoformans (MY 1146)) | MIC (C. neoformans (MY 1146)) | MFC (C. neoformans (MY 2062)) | MIC (C. neoformans (MY 2062)) | MFC (C. albicans (MY 1750)) | MIC [4] | MIC (A. fumigatus (5668)) | MFC (C. neoformans (MY 2061)) | MIC (C. neoformans (MY 2061)) | MFC [5] | MIC [5] | MIC (C. tropicalis (MY 1012)) | MFC (C. tropicalis (MY 1012)) | MIC [6] | MFC [6] | MIC (A. fumigatus (5669)) | other results
1 | C[C@@H]1[C@H](O)[C@@H](C)/C=C/C=C/C=C/C=C/C=C/C=C/C=C/[C@H](O[C@@H]2O[C@H](C)[C@@H](O)[C@H](N)[C@@H]2O)C[C@@H]2O[C@](O)(C[C@@H](O)C[C@@H](O)[C@H](O)CC[C@@H](O)C[C@@H](O)CC(=O)O[C@H]1C)C[C@H](O)[C@H]2C(=O)O [Amphotericin B, reference compound] | 4 µg/mL (≈ 4.33 µM) | 2 µg/mL (≈ 2.16 µM) | 4 µg/mL (≈ 4.33 µM) | 4 µg/mL (≈ 4.33 µM) | 2 µg/mL (≈ 2.16 µM) | 2 µg/mL (≈ 2.16 µM) | 2 µg/mL (≈ 2.16 µM) | 2 µg/mL (≈ 2.16 µM) | 2 µg/mL (≈ 2.16 µM) | 1 µg/mL (≈ 1.08 µM) | 4 µg/mL (≈ 4.33 µM) | 2 µg/mL (≈ 2.16 µM) | 2 µg/mL (≈ 2.16 µM) | 4 µg/mL (≈ 4.33 µM) | 2 µg/mL (≈ 2.16 µM) | 64 µg/mL (≈ 69.3 µM) | 32 µg/mL (≈ 34.6 µM) | 2 µg/mL (≈ 2.16 µM) | 2 µg/mL (≈ 2.16 µM) | 4 µg/mL (≈ 4.33 µM) | MIC [7]: 2 µg/mL (≈ 2.16 µM); MFC [7]: 4 µg/mL (≈ 4.33 µM)
2 | CCCCCCC(C)C1=C(O)C(=O)C2C(O)C(C)CC(O)C2C1(C)C(=O)CCO (centres unmarked) [Compound I] | 32 µg/mL (≈ 77.9 µM) | 32 µg/mL (≈ 77.9 µM) | 16 µg/mL (≈ 39 µM) | 32 µg/mL (≈ 77.9 µM) | 32 µg/mL (≈ 77.9 µM) | 32 µg/mL (≈ 77.9 µM) | 32 µg/mL (≈ 77.9 µM) | 16 µg/mL (≈ 39 µM) | 32 µg/mL (≈ 77.9 µM) | 16 µg/mL (≈ 39 µM) | 32 µg/mL (≈ 77.9 µM) | 16 µg/mL (≈ 39 µM) | 16 µg/mL (≈ 39 µM) | 16 µg/mL (≈ 39 µM) | 8 µg/mL (≈ 19.5 µM) | 32 µg/mL (≈ 77.9 µM) | 32 µg/mL (≈ 77.9 µM) | 64 µg/mL (≈ 156 µM) | 64 µg/mL (≈ 156 µM) | 32 µg/mL (≈ 77.9 µM) | MIC [2, 8]: 32 µg/mL (≈ 77.9 µM); growth inhibition of fungal organisms (inhibition zones) (filamentous fungi): effectively inhibit growth; control of Plasmopara viticola (Plasmopara viticola): ≤ 85%; control of Botrytis cinerea (Botrytis cinerea): Moderate control; control of Puccinia recondita (Puccinia recondita): Moderate control; control of Alternaria solania (Alternaria solani): Moderate control; MIC (C. albicans (MY 1750); [8]): 64 µg/mL (≈ 156 µM); MFC ([4]; read-out: Minimum Fungicidal Concentration (MFC)): 16 µg/mL (≈ 39 µM); control of Phytophthora infestans (Phytophthora infestans): up to 90%; MIC [7]: 16 µg/mL (≈ 39 µM); MFC [7]: 16 µg/mL (≈ 39 µM)
